Laboratory results taken from patent publication US12599622B2, “Compounds to modulate intestinal absorption of nutrients” (The Brigham and Women's Hospital, Inc., priority 2013, dated 2026).

Key:
[1] = aluminum release / aluminum content by ICP-AES; format: physicochemical
Experimental: To confirm the pH dependent release of aluminum from sucralfate and ASP, aluminum-release was measured during ASP paste formation. […] The aluminum content in the supernatants was measured using inductively coupled plasma atomic emission spectroscopy (ICP-AES, ULTIMA-2, Horiba).
To measure additional aluminum release from aluminum-pre-released ASP, formed pastes were washed with DDW, and 500 mg was added to 10 ml of simulated stomach acid. The samples were vortexed for 5 minutes and incubated for 2 hours. The aluminum content in the supernatant solutions was measured using ICP-AES.

[2] = followed by excretion via feces; cited from earlier work
[3] = mechanical stability of pastes (wet and dry weight over time); format: physicochemical
Experimental: To assess mechanical stability and physical properties of ASP, each 500 mg of ASP prepared from HCl solutions (0.1-0.3N) was added to 1 ml of simulated stomach acid (pH 1.0) in 37° C. At time points including 0, 10, 30, 60, 120 and 300 minutes, supernatant was removed to measure the wet weight. The remaining paste was lyophilized to measure the dry weight.

[4] = dynamic viscosity by rheometer in simulated stomach acid; format: physicochemical; conditions: 1% w/v in simulated stomach acid
Experimental: Dynamic viscosity was measured using a 20-mm plate with 200-μm gaps (shear rate: 0.01-100 l/s in log scale, shear rate of 1 l/s was selected to compare viscosity of materials).

Sprague-Dawley (SD) rats = test: Oral Glucose Tolerance Test (OGTT) after pre-gavage; format: in vivo, rat; conditions: 15-hour fasted rats, 500 mg/kg 3 times
Experimental: To evaluate the in vivo effect of ASP-PC on postprandial glucose absorption, Sprague-Dawley (SD) rats were pre-gavaged with the particles and tested using the Oral Glucose Tolerance Test (OGTT) method. […] For shorter fasting time, the rats were fasted for 5 hour (starting time: 7 am the same day of OGTT) and gavaged with saline or ASP-PC (starting time: 12 am the same day, dose: 500 mg/kg rat, 3 times, 1-hour apart for each gavage). Blood was collected from the tail vein to measure blood glucose level using a glucometer (OneTouch UltraSmart, LifeScan Inc., USA). Statistical significance was determined using a paired Student t-test. Results were considered significant when p≤0.05.
ASP-PC particles were gavaged in Sprague-Dawley (SD) rats fasted for 5 hour (FIGS. 11A, 11B, and 11C) or 15 hour (FIGS. 11D, 11E, andllF) (dose: 500 mg/kg rat, 3 times, 1-hour apart for each gavage).

[5] = integrative permeation test: glucose barrier on mucin-coated membrane in Franz cell; conditions: paste in simulated stomach acid pH 1.0 on mucin-coated membrane; normalized to membrane without material (0% blocked)
Experimental: Specifically, a cellulose nitrate membrane (pore size: 0.2 μm, Whatman, Germany) was incubated in a 3% w/v porcine stomach mucin (Sigma-Aldrich, USA) solution in Hank's balanced salt solution (HBSS) and gently shaken for 2 hours at room temperature. The membrane was washed with distilled deionized water (DDW, pH 7) to remove the excess mucin solution. The mucin-coated membranes were used within 1 hour following preparation. To measure the thickness of the mucin layer, the mucin-coated membrane was lyophilized and imaged using scanning electron microscope (SEM) and the thickness of randomly selected positions was examined (average mucin layer thickness: ˜100 μm).
The dry weight was calculated from dry weights of material-attached membranes and mucin-coated membranes. […] The permeation test was performed in triplicate. The glucose concentration was measured using high performance liquid chromatography (HPLC, Agilent, USA) with an analytical C18 column (Zorbax Eclipse XDB-C18, Agilent). The flow rate was 1 ml/minute, the eluent was DDW, and the wavelength of UV detector was 195 nm.
The barrier properties of the resultant particles were measured by adding 0.9 ml of particle dispersion and 0.1 ml of 10× simulated stomach acid.

Question: With “sucrose octasulfate-aluminum complex [sucralfate]” as the substance, how does the “percentage of total aluminum released” value ([1]; in 0.1N HCl) read?
Answer: ~9.4%

Question: And the “percentage of total aluminum released” value ([1]; in 0.3N HCl)?
Answer: ~44.8%

Question: And the “original aluminum content released” value ([1]; reaction with simulated stomach acid (pH 1.0))?
Answer: ~9.4%

Question: And the “duration in the GI tract” value [2]?
Answer: 2 to 6 h

Question: What about the “total mass liberated upon exposure to stomach acid” value [3] of the same substance?
Answer: ~10%

Question: What about the viscosity [4] of the same substance?
Answer: very high viscosity

Question: And the “peak glucose values at all other time points versus saline” value (Sprague-Dawley (SD) rats)?
Answer: similar

Question: And the “5-minutes glucose level following OGTT” value (Sprague-Dawley (SD) rats; p<0.003 vs saline)?
Answer: 97.8 ± 7.3 mg/dL

Question: What about the “blocking of glucose (barrier property to glucose permeation)” value [5] of the same substance?
Answer: 62%
